Read-outs that look alike come from different tables or passages of the source.
Key:
[1] = system: Staphylococcus aureus ATCC 25923 or ATCC 29213; assay: MIC, broth dilution (CA-SFM); format: cell-based
MRSA ATCC 43300 = assay: MIC, CO-ADD broth microdilution; format: cell-based, Staphylococcus aureus; details: for MIC: Staphylococcus aureus, MRSA ATCC 43300, mean (n = 2), read-out: MIC MRSA
[2] = system: Escherichia coli ATCC 25922; assay: MIC, CO-ADD broth microdilution; format: cell-based; details: ATCC25922, mean (n = 2)
[3] = system: Pseudomonas aeruginosa PAO1 or ATCC 27853; assay: MIC, broth dilution (CA-SFM); format: cell-based; details: mean (n = 3)
[4] = system: Klebsiella pneumoniae ATCC700603; assay: MIC, CO-ADD broth microdilution; format: cell-based; details: mean (n = 2)
[5] = system: Acinetobacter baumannii ATCC19606; assay: MIC, CO-ADD broth microdilution; format: cell-based; details: mean (n = 2)
[6] = system: Candida albicans ATCC90028; assay: Antifungal MIC, CO-ADD; format: cell-based; details: mean (n = 2)
Method in brief: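 Yeast from 3-day YPD cultures was diluted in YNB broth to a final 2.5 × 10^3 CFU/mL and incubated at 35 °C for 36 h without shaking. C. albicans MICs were read by OD530 absorbance. QC used fluconazole and Z'-factor controls.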

[7] = system: Cryptococcus neoformans ATCC208821; assay: Antifungal MIC, CO-ADD; format: cell-based; details: ATCC208821, Cryptococcus neoformans ATCC208821, mean (n = 2)
Method in brief: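 Fungal strains were grown on YPD agar at 30 °C for 3 days. Five colonies were used to make a yeast suspension of 1 × 10^6 to 5 × 10^6 CFU/mL, which was diluted in yeast nitrogen base (YNB) broth to 2.5 × 10^3 CFU/mL. Covered plates were incubated without shaking at 35 °C for 36 h. Fluconazole was the positive control, and quality was judged from antimicrobial controls and the Z'-factor.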

[8] = Cytotoxicity assay (resazurin); format: cell-based, human; details: human; HEK293 cells; mean (n = 2); highest dose tested 32 μg/mL; read-out: Cytotoxicity (concentration of compound at 50% cytotoxicity, IC50)
human red blood cells = assay: Hemolytic assay; format: cell-based; details: for Hemolysis (HC10, concentration at 10% hemolytic activity): mean (n = 2)
Method in brief: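 Washed human erythrocytes at 0.5 × 10^8 cells/mL in 0.9% NaCl, shaken 10 min with compound, then held 1 h at 37 °C. Released hemoglobin in supernatant after centrifugation read at OD405; HC10 and HC50 from variable-slope sigmoidal fit against log concentration.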

P. aeruginosa ATCC27853 = assay: Doxycycline potentiation (MIC of antibiotic in presence of synergizing compound); format: cell-based, Pseudomonas aeruginosa; details: doxycycline 2 μg/mL, P. aeruginosa ATCC 27853
[9] = system: HEK293 human embryonic kidney cells; assay: Cytotoxicity assay (resazurin); format: cell-based; details: HEK293
MRSA (CF-Marseille) [10] = assay: MIC, classical microdilution; format: cell-based; details: Staphylococcus aureus, 4.4 μM = 4 μg/mL
[11] = system: Bacillus cereus ATCC 11778; assay: MIC, classical microdilution; format: cell-based; details: ATCC11778, 4.4 μM = 4 μg/mL
[12] = system: Bacillus cereus ATCC 11778; assay: Minimum bactericidal concentration test; format: cell-based; details: ATCC11778, same value as MIC
Procedure: (§1) A pure culture of a specified microorganism was grown overnight, then diluted in growth-supporting broth (typically Mueller–Hinton II broth) to a concentration between 1 × 10^5 and 1 × 10^6 CFU/mL. A stock dilution of the antimicrobial test compound was created at approximately 100 times the expected previously determined MIC. Further 1:1 dilution was made in 96-well microtiter plates. All dilutions of the test compound were inoculated with equal volumes of the specified microorganism (typically 100 µL). […] An aliquot of the positive control is plated and used to establish a baseline concentration of the microorganism used. The microtiter plates were then incubated at 37 °C for 24 h. Turbidity indicates growth of the microorganism, and the MIC is the lowest concentration where no growth is visually observed. To determine the minimum bactericidal concentration (MBC), the dilution representing the MIC and at least two of the more concentrated test product dilutions are plated on a solidified agar plate to determine the bacterial viability. The MBC is the lowest concentration where no growth is encountered when compared to the MIC dilution.

MRSA (CF-Marseille) [13] = assay: Minimum bactericidal concentration test; format: cell-based; details: Staphylococcus aureus, same value as MIC
Procedure: as §1

S. aureus ATCC 25923 [14] = assay: Minimum bactericidal concentration test; format: cell-based; details: Staphylococcus aureus, ATCC25923, same value as MIC
Procedure: as §1

MRSA (CF-Marseille) [15] = assay: Real-time growth curves; format: cell-based, Staphylococcus aureus
Procedure: (§2) Solutions of compound 15d at concentrations of 2, 4 and 16 µg/mL were tested, each in triplicate, against S. aureus ATCC 25923, MRSA (CF-Marseille) and Bacillus cereus ATCC 11778. Typically, in a 96-well plate, 10 µL of 40, 80 and 320 µg/mL stock solutions of compound 15d were placed, as well as 190 µL of a 5 × 10^5 CFU/mL of the selected bacterial suspension in brain heart infusion (BHI) broth. Positive controls containing only 200 µL of a 5 × 10^5 CFU/mL of bacterial suspension in BHI and negative controls containing only 200 µL of BHI broth were added. The plate was incubated at 37 °C in a TECAN Spark Reader (Roche Diagnostic), and real-time bacterial growth was followed by OD590 nm measurement every 10 min during 19 h.

S. aureus ATCC 25923 [16] = assay: Real-time growth curves; format: cell-based, Staphylococcus aureus
Procedure: as §2

[17] = system: Bacillus cereus ATCC 11778; assay: Real-time growth curves; format: cell-based; details: B. cereus ATCC 11778
Procedure: as §2

S. aureus ATCC 25923 [18] = assay: ATP release assay (bioluminescence); format: cell-based, Staphylococcus aureus; details: brief exposure
Procedure: The mechanism of action of antibacterial activity observed for 15d was attributed to the ability to disrupt the bacterial cell membrane.
Solutions of test compound 15d were prepared in DMSO at various concentrations. A suspension of growing S. aureus to be studied in Muller–Hinton II broth was prepared and incubated at 37 °C. An aliquot (90 µL) of this suspension was added to 10 µL of test compound solution and vortexed for 10 s. Luciferin–luciferase reagent (Yelen, France; 50 µL) was immediately added to this mixture and luminescent signal quantified with an Infinite M200 microplate reader (Tecan) over a 30 min period. ATP concentration was quantified by internal sample addition. A similar procedure was used for the CTAB positive control.

[19] = Staphylococcus aureus ATCC 25923 or ATCC 29213, mean (n = 3), read-out: MIC S. a
[20] = at 4.4 μM (4 µg/mL) and 17 μM (16 µg/mL)
[21] = lowest tested concentration 2.2 μM (2 µg/mL)

MIC [1, 19] [µM] | MIC (MRSA ATCC 43300) [µM] | MIC [2] [µM] | MIC [3] [µM] | MIC [4] [µM] | MIC [5] [µM] | MIC [6] [µM] | MIC [7] [µM] | fold increase (antibiotic enhancement vs intrinsic MIC) (P. aeruginosa ATCC27853) [fold] | Structure (SMILES) | IC50 at 20 h [8] [µM] | Hemolysis (HC10, concentration at 10% hemolytic activity) (human red blood cells) [µM] | cytotoxicity [9] | hemolytic properties (human red blood cells) | other results
> 247 | ≤ 0.31 | ≤ 0.31 | 247 | > 39.5 | 4.9 | ≤ 0.31 | > 39.5 |  | Cl.Cl.S=C(NCCCNCCCCCCCCCCNCCCNC(=S)NC(c1ccccc1)c1ccccc1)NC(c1ccccc1)c1ccccc1 [Compound 6e, N^1,N^10-Bis(3-(3-benzhydrylthioureido)propyl)decane-1,10-diaminium chloride] | > 39.5 | >39.5 |  |  | antibiotic enhancement of doxycycline (P. aeruginosa ATCC27853): particularly strong enhancers; melting point: 114 to 115 °C
6.25 | ≤ 0.26 | > 32.7 | > 100 | > 32.7 | > 32.7 | > 32.7 | > 32.7 |  | O=C(CCC(=O)NCCCc1ccccc1)NCCCNCCCCCCCCCCCCNCCCNC(=O)CCC(=O)NCCCc1ccccc1.O=C(O)C(F)(F)F.O=C(O)C(F)(F)F [Compound 14f, N^1,N^12-Bis(3-(4-oxo-4-((3-phenylpropyl)amino)butanamido)propyl)dodecane-1,12-diaminium 2,2,2-trifluoroacetate] | > 32.7 | >32.7 | non-toxic | non-hemolytic | activity towards MRSA (MRSA ATCC 43300; MRSA): potent
6.25 | ≤ 0.3 | ≤ 0.3 | 50 | > 37.8 | > 37.8 | > 37.8 | > 37.8 | 4 | O=C(CC(c1ccccc1)c1ccccc1)NCCCNCCCCNCCCNC(=O)CC(c1ccccc1)c1ccccc1.O=C(O)C(F)(F)F.O=C(O)C(F)(F)F [Compound 15a, N^1,N^4-Bis(3-(3,3-diphenylpropanamido)propyl)butane-1,4-diaminium 2,2,2-trifluoroacetate] | > 37.8 | >37.8 |  |  | 
3.13 | ≤ 0.28 | 2.2 | 100 | > 35.4 | > 35.4 | > 35.4 | > 35.4 |  | O=C(CC(c1ccccc1)c1ccccc1)NCCCNCCCCCCCCNCCCNC(=O)CC(c1ccccc1)c1ccccc1.O=C(O)C(F)(F)F.O=C(O)C(F)(F)F [Compound 15d, N^1,N^8-Bis(3-(3,3-diphenylpropanamido)propyl)octane-1,8-diaminium 2,2,2-trifluoroacetate] | > 35.4 | >35.4 | no detectable | no detectable | MIC ([1]; Staphylococcus aureus, S. aureus ATCC 25923, classical microdilution, 4.4 μM = 4 μg/mL, read-out: MIC): 4.4 µM; MIC (MRSA (CF-Marseille) [10]): 4.4 µM; MIC [11]: 4.4 µM; MBC [12]: 4.4 µM; MBC (MRSA (CF-Marseille) [13]): 4.4 µM; MBC (S. aureus ATCC 25923 [14]): 4.4 µM; real-time growth inhibition (MRSA (CF-Marseille) [15]; [20]): completely inhibited; time after which bacterial growth was detected (MRSA (CF-Marseille) [15]; [21]): 4 h; real-time growth inhibition (S. aureus ATCC 25923 [16]; [20]): completely inhibited; time after which bacterial growth was detected (S. aureus ATCC 25923 [16]; [21]): 6 h; real-time growth inhibition [17, 20]: completely inhibited; time after which bacterial growth was detected [17, 21]: 12 h; leakage of intracellular ATP (S. aureus ATCC 25923 [18]): rapid dose-dependent leakage of intracellular ATP
25 | ≤ 0.25 | > 31.5 |  | > 31.5 | > 31.5 | > 31.5 | ≤ 0.28 | 8 | O=C(CCC(=O)NCCC(c1ccccc1)c1ccccc1)NCCCNCCCCNCCCNC(=O)CCC(=O)NCCC(c1ccccc1)c1ccccc1.O=C(O)C(F)(F)F.O=C(O)C(F)(F)F [Compound 16a, N^1,N^4-Bis(3-(4-((3,3-diphenylpropyl)amino)-4-oxobutanamido)propyl)butane-1,4-diaminium 2,2,2-trifluoroacetate] | > 31.5 | >31.5 |  |  | MIC ([3]; 18 h): 20 µM
